Source: US11541006B2, “Aqueous formulation for insoluble drugs” (priority 2018, dated 2023)
≈ marks a conversion by molar mass, not a printed value.

How the values were obtained:
physchem = details: for Appearance of the undiluted solutions / Appearance of the solutions after being diluted in an IV infusion fluid: RT, 24 hours; for Appearance of the solutions after being diluted in an IV infusion fluid: diluted to about 0.5 to 5 mg/mL
Experimental: Different amounts of voriconazole (20 to 60 mg/mL) were first dissolved in F145V and subsequently diluted in an IV infusion fluid, such as normal saline (NS), 5% dextrose in water (D5W), water for injection (WFI), or Lactated Ringers solution, to a final voriconazole concentration of about 0.5 to 5 mg/mL.

[1] = Solubility of insoluble drugs in F96 LMBW vehicle (Example 4); assay type: physicochemical; details: aqueous with cosolvent or surfactant or cyclodextrin, thermodynamic from solid
From the text: Twenty-two (22) insoluble drugs having a wide variety of chemical structures (including chemical element, small molecule, peptide and protein), properties and biological activities (including drugs, diagnostic agents and nutritional supplement agents) were selected and tested for solubility in F96 LMBW vehicle as follows: • 1. Measure out a fixed amount of F96 vehicle. • 2. Add a known amount of an insoluble drug substance. • 3. Mix to dissolve the drug substance. • 4. […] Record the maximum amount of the insoluble drug substance that the F96 LMBW vehicle could dissolve and use this value to calculate the drug's solubility in the F96 LMBW vehicle.

[2] = Voriconazole stability versus pH and predicted F96 shelf life T90 (separate study); assay type: physicochemical
[3] = Voriconazole solubility in LMBW versus binary/ternary mixtures of L, M, B and alcohol (Example 2); assay type: physicochemical; details: thermodynamic from solid
Experimental: For this study, voriconazole was used as the insoluble drug.
To determine solubility in each combination, voriconazole was added to each combination and mixed until it no longer would dissolve. For each mixture, the pH was adjusted to pH 4.5-5, equilibrated at room temperature, and then passed through a 0.2-micron filter. The filtrate was analyzed by HPLC for voriconazole concentration. Each HPLC-determined voriconazole concentration is noted as a “Voriconazole solubility” in the tables below.

[4] = cited from earlier work
[5] = Solubility of insoluble drugs in 16% SBECD aqueous solution (Example 27); details: 16% SBECD aqueous solution, aqueous with cosolvent or surfactant or cyclodextrin, thermodynamic from solid
From the text: Add a known amount of an insoluble drug substance. • 3. Mix to dissolve the drug substance. • 4.

In the case of `C[C@@H](c1ncncc1F)[C@](O)(Cn1cncn1)c1ccc(F)cc1F` [Voriconazole], the “Solubility increase over water” value (physchem) is reported as 86 folds, the “Appearance of the undiluted solutions” value (physchem; 20 mg/mL added to F145V) is reported as “Clear & one-phase solution” and the “Appearance of the solutions after being diluted in an IV infusion fluid” value (from here on “Appearance of the solutions”) (physchem; 20 mg/mL in F145V) is reported as “Clear & one-phase solution”. The “Appearance of the undiluted solutions” value (physchem; 30 mg/mL added to F145V) was “Clear & one-phase solution”, the “Appearance of the solutions” value (physchem; 30 mg/mL in F145V) was “Clear & one-phase solution” and the “Appearance of the undiluted solutions” value (physchem; 40 mg/mL added to F145V) was “Clear & one-phase solution”. The “Appearance of the solutions” value (physchem; 40 mg/mL in F145V) was “Slight precipitation”, the “Appearance of the undiluted solutions” value (physchem; 50 mg/mL added to F145V) was “Clear & one-phase solution” and the “Appearance of the solutions” value (physchem; 50 mg/mL in F145V) was “Major precipitation”. For the same compound, the “Appearance of the undiluted solutions” value (physchem; 60 mg/mL added to F145V) was “Clear & one-phase solution”, the “Appearance of the solutions” value (physchem; 60 mg/mL in F145V) was “Major precipitation” and the solubility at 24 h (physchem; aqueous with cosolvent or surfactant or cyclodextrin) was no less than 60000 µg/mL. The solubility [1] was 20000 µg/mL (≈ 57.3 mM), the “pH at which most stable in an aqueous solution” value [2] was roughly 4 and the solubility ([3]; LMBW (lecithin, MCT, bile acid, alcohols in water), pH 4.5, aqueous with cosolvent or surfactant or cyclodextrin) was 29400 µg/mL. The solubility ([3]; MCT and alcohols in water), aqueous with cosolvent or surfactant or cyclodextrin, vehicle % wt in water: glycocholic acid 10.6, MCT 15, benzyl alcohol 4.5, ethanol 6.5, emulsion, opaque, pH 4.5-5, RT) was 8000 µg/mL, the solubility ([3]; MCT and alcohols in water), aqueous with cosolvent or surfactant or cyclodextrin, vehicle % wt in water: lecithin 25, MCT 15, benzyl alcohol 4.5, ethanol 6.5, emulsion, opaque, pH 4.5-5, RT) was 19800 µg/mL and the solubility ([3]; alcohol solution (benzyl alcohol and ethanol in water), pH 4.5, aqueous with cosolvent or surfactant or cyclodextrin) was 1100 µg/mL. It also gave a solubility ([3]; aqueous with cosolvent or surfactant or cyclodextrin, vehicle % wt in water: MCT 15, emulsion, opaque, pH 4.5-5, RT) of 500 µg/mL, a solubility ([3]; aqueous with cosolvent or surfactant or cyclodextrin, vehicle % wt in water: glycocholic acid 10.6, micelle solution, hazy, pH 4.5-5, RT) of 2100 µg/mL and a solubility ([3]; aqueous with cosolvent or surfactant or cyclodextrin, vehicle % wt in water: lecithin 25, glycocholic acid 10.6, benzyl alcohol 4.5, ethanol 6.5, micelle solution, hazy, pH 4.5-5, RT) of 8000 µg/mL. It also gave a solubility ([3]; aqueous with cosolvent or surfactant or cyclodextrin, vehicle % wt in water: lecithin 25, liposome, hazy, pH 4.5-5, RT) of 800 µg/mL, a solubility ([3]; emulsion (MCT and alcohols in water), aqueous with cosolvent or surfactant or cyclodextrin, vehicle % wt in water: MCT 15, benzyl alcohol 4.5, ethanol 6.5, emulsion, opaque, pH 4.5-5, RT) of 19400 µg/mL and a solubility ([3]; emulsion (glycocholic acid and MCT in water), aqueous with cosolvent or surfactant or cyclodextrin, vehicle % wt in water: glycocholic acid 10.6, MCT 15, emulsion, opaque, pH 4.5-5, RT) of 3100 µg/mL. For the same compound, the solubility ([3]; emulsion (lecithin and MCT in water), aqueous with cosolvent or surfactant or cyclodextrin, vehicle % wt in water: lecithin 25, MCT 15, emulsion, opaque, pH 4.5-5, RT) was 1400 µg/mL, the solubility ([3]; liposome (lecithin and alcohols in water), aqueous with cosolvent or surfactant or cyclodextrin, vehicle % wt in water: lecithin 25, benzyl alcohol 4.5, ethanol 6.5, liposome, hazy, pH 4.5-5, RT) was 13700 µg/mL and the solubility ([3]; micelle solution (glycocholic acid and alcohols in water), aqueous with cosolvent or surfactant or cyclodextrin, vehicle % wt in water: glycocholic acid 10.6, benzyl alcohol 4.5, ethanol 6.5, micelle solution, hazy, pH 4.5-5, RT) was 7600 µg/mL. The solubility ([3]; micelle solution (lecithin and glycocholic acid in water), aqueous with cosolvent or surfactant or cyclodextrin, vehicle % wt in water: lecithin 25, glycocholic acid 10.6, micelle solution, hazy, pH 4.5-5, RT) was 7100 µg/mL, the “Solubility according to USP definition” value ([4]; in water) was “Insoluble” and the Solubility in water ([4]; water, 25° C.) was “about 0.7 mg/mL”. The “Reported solubility in water” value ([4]; water) was 700 µg/mL and the solubility [5] was 8600 µg/mL (≈ 24.6 mM).
